Measurements from patent publication US12059425B2, “Heterocyclic compounds and uses thereof” (Kumquat Biosciences Inc., priority 2022, dated 2024).
Where two headings read alike, the source gives them in different places.

Key:
[1] = biological target: T1, wildtype K-Ras (Homo sapiens, UniProt P01116); assay: PPI-HTRF assay, wildtype K-Ras / SOS1 interaction; type: biochemical
T1 construct: made in house; host or cells: E. coli, e.g. BL21 (DE3)
How it was run: (§1)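 GST-tagged K-Ras (WT or mutant) bound to anti-GST-Eu was mixed with His-hSOS1 bound to anti-6His-XL665 in pH 7.4 HEPES/NaCl/DTT/BSA/Igepal buffer. After ~10 min or longer, HTRF was read (ex 337 nm, em 620/665 nm). IC50 was derived from the 665/620 ratio, with duplicates tested from 10 μM down to 0.01 μM.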

[2] = tested on: A549 cells; assay: Ras cellular assay, cell proliferation A549; type: cell-based; conditions: Homo sapiens
How it was run: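 G12S-mutant A549 cells (800/well) in RPMI-1640 plus 10% heat-inactivated FBS, standard or ultra-low attachment 384-well plates, dosed the day after plating with a 10-point 3-fold series. Viability by CellTiter-Glo luminescence about 6 days later; IC50 from four-parameter fit.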

[3] = biological target: T2, K-Ras G12V (Homo sapiens, UniProt P01116, G12V); assay: PPI-HTRF assay, K-Ras G12V / SOS1 interaction; type: biochemical
T2 construct: made in house; host or cells: E. coli, e.g. BL21 (DE3)
T2 sequence (P01116 1-188 isoform P01116-2 G12V): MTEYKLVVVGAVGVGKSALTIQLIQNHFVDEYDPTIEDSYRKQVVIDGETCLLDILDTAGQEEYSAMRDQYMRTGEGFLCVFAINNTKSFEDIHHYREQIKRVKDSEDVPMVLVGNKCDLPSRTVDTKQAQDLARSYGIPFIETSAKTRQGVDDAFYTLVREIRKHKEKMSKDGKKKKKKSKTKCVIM
How it was run: as §1

[4] = biological target: T3, K-Ras G12D (Homo sapiens, UniProt P01116, G12D); assay: PPI-HTRF assay, K-Ras G12D / SOS1 interaction; type: biochemical
T3 construct: made in house; host or cells: E. coli, e.g. BL21 (DE3)
T3 sequence (P01116 1-188 isoform P01116-2 G12D): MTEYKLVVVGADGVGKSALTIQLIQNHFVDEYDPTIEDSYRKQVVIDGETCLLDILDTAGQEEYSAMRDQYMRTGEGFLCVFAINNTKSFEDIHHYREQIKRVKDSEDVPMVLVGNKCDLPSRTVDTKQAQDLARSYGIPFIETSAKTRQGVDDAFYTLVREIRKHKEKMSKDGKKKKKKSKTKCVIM
How it was run: as §1

[5] = tested on: SW620 cells; assay: Ras cellular assay, cell proliferation SW620; type: cell-based; conditions: Homo sapiens, SW-620
Source text: For example, this assay can be also used to assess selective growth inhibition of a mutant Ras protein relative to a wildtype, or relative to a different mutant Ras protein.

[6] = tested on: GP2D cells; assay: Ras cellular assay, cell proliferation GP2D; type: cell-based
How it was run: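 GP2D cells (G12D Ras mutant) seeded (e.g., 800/well) and treated the next day with a dilution series (e.g., 9-point, 3-fold). After approximately 5 days, viability measured by CellTiter-Glo luminescence; IC50 from four-parameter fit.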

[7] = biological target: T4, K-Ras G12S (Homo sapiens, UniProt P01116, G12S); assay: PPI-HTRF assay, K-Ras G12S / SOS1 interaction; type: biochemical
T4 construct: made in house; host or cells: E. coli, e.g. BL21 (DE3)
T4 sequence (P01116 1-188 isoform P01116-2 G12S): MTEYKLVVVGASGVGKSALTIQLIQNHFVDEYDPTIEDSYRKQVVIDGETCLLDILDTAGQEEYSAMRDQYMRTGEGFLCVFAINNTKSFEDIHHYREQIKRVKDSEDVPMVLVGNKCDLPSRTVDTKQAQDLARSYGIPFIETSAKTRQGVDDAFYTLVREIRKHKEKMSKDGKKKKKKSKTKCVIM
How it was run: as §1

[8] = HTRF, K-Ras wt, read-out: PPI-HTRF-5 nM (K-Ras wt IC50)
[9] = HTRF, K-Ras G12V, read-out: PPI-HTRF-5 nM (K-Ras G12V IC50)
[10] = HTRF, K-Ras G12D, read-out: PPI-HTRF-5 nM (K-Ras G12D IC50)
[11] = read-out: PPI-HTRF-5 nM (K-Ras G12S IC50)

T1 sequence (P01116 1-188 isoform P01116-2): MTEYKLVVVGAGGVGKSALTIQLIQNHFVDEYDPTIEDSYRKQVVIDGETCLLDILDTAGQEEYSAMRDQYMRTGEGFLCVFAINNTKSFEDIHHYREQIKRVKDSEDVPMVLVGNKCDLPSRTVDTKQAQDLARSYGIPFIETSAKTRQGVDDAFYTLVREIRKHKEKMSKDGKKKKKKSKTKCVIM

SMILES	IC50 [1, 8] [µM]	IC50 [2] [µM]	IC50 [3, 9] [µM]	IC50 [4, 10] [µM]	IC50 [5] [µM]	IC50 [7, 11] [µM]	IC50 [6] [µM]	IC50 [1] [µM]	IC50 [3] [µM]	IC50 [4] [µM]	IC50 ([7]; PPI-HTRF-5 nM (K-Ras G12S IC50)) [µM]
CN1c2nc(OC[C@@]34CCCN3C[C@H](F)C4)nc3c(F)c(-c4ccc(F)c5sc(N)c(C#N)c45)c(Cl)c(c23)OC2CN(C(=O)C3N[C@H]3C3CC3)CC21 (stereo partly drawn) [compound 108, 2-amino-4-(6-chloro-9-((3S)-3-cyclopropylaziridine-2-carbonyl)-4-fluoro-2-(((2R,7aS)-2-fluorotetrahydro-1H-pyrrolizin-7a(5H)-yl)methoxy)-11-methyl-7a,8,9,10,10a,11-hexahydropyrrolo[3′,4′:2,3][1,4]oxazepino [5,6,7-de]quinazolin-5-yl)-7-fluorobenzo[b]thiophene-3-carbonitrile]	–	> 5	–	–	> 5	–	< 5	< 5	< 5	< 5	< 5
N#Cc1c(N)sc2c(F)ccc(-c3c(Cl)c4c5c(nc(OC[C@@]67CCCN6C[C@H](F)C7)nc5c3F)N3CCCC3CO4)c12 (stereo partly drawn) [compound 137, 2-amino-4-(6-chloro-4-fluoro-2-(((2R,7aS)-2-fluorotetrahydro-1H-pyrrolizin-7a(5H)-yl)methoxy)-8a,9,10,11-tetrahydro-8H-pyrrolo[2′,1′:3,4][1,4]oxazepino[5,6,7-de]quinazolin-5-yl)-7-fluorobenzo[b]thiophene-3-carbonitrile]	< 5	< 5	< 5	< 5	< 5	< 5	< 5	–	–	–	–

Further lines, with some results ahead:

IC50 [1, 8] [µM]	IC50 [2] [µM]	IC50 [3, 9] [µM]	IC50 [4, 10] [µM]	IC50 [5] [µM]	IC50 [7, 11] [µM]	SMILES	IC50 [6] [µM]	IC50 [1] [µM]	IC50 [3] [µM]	IC50 [4] [µM]	IC50 ([7]; PPI-HTRF-5 nM (K-Ras G12S IC50)) [µM]
< 5	< 5	< 5	< 5	< 5	< 5	CN1c2nc(OC[C@@]34CCCN3C[C@H](F)C4)nc3c(F)c(-c4ccc(F)c5sc(N)c(C#N)c45)c(Cl)c(c23)OC2CN(C=O)CC21 (stereo partly drawn) [compound 126, 2-amino-4-(6-chloro-4-fluoro-2-(((2R,7aS)-2-fluorotetrahydro-1H-pyrrolizin-7a(5H)-yl)methoxy)-9-formyl-11-methyl-7a,8,9,10,10a,11-hexahydropyrrolo[3′,4′:2,3][1,4]oxazepino[5,6,7-de]quinazolin-5-yl)-7-fluorobenzo[b]thiophene-3-carbonitrile]	< 5	–	–	–	–
< 5	< 5	< 5	< 5	< 5	< 5	N#Cc1c(N)sc2c(F)ccc(-c3c(Cl)c4c5c(nc(OC[C@@]67CCCN6C[C@H](F)C7)nc5c3F)N3CC[C@H]3CO4)c12 [compound 192, 2-amino-4-((11aS)-9-chloro-7-fluoro-5-(((2R,7aS)-2-fluorotetrahydro-1H-pyrrolizin-7a(5H)-yl)methoxy)-1,2,11,11a-tetrahydroazeto[2′,1′:3,4][1,4]oxazepino [5,6,7-de]quinazolin-8-yl)-7-fluorobenzo[b]thiophene-3-carbonitrile]	< 5	–	–	–	–
< 5	< 5	< 5	< 5	< 5	< 5	N#Cc1c(N)sc2c(F)ccc(-c3c(Cl)c4c5c(nc(OC[C@@]67CCCN6C[C@H](F)C7)nc5c3F)N3CC(COC(F)F)CCC3CO4)c12 (stereo partly drawn) [compound 154, 2-amino-4-(6-chloro-11-((difluoromethoxy)methyl)-4-fluoro-2-(((2R,7aS)-2-fluorotetrahydro-1H-pyrrolizin-7a(5H)-yl)methoxy)-8,8a,9,10,11,12-hexahydropyrido[2′,1′:3,4][1,4]oxazepino [5,6,7-de]quinazolin-5-yl)-7-fluorobenzo[b]thiophene-3-carbonitrile]	< 5	–	–	–	–
